Assay [1] deals with IL-1β release upon NLRP3 activation in peripheral blood mononuclear cells (PBMC). Nature of the assay: PBMC IC50 determination assay (IL-1β release, LPS priming + ATP stimulation, HTRF). In kind it is cell-based. The settings on record: PBMC from buffy coats; LPS 1 μg/ml 3 h, compound 30 min, ATP 5 mM 1 h; IL-1β by HTRF. On the procedure: The compounds of the present disclosure were tested for their inhibitory activity against IL-1β release upon NLRP3 activation in peripheral blood mononuclear cells (PBMC).
PBMC were isolated from buffy coats by density gradient centrifugation on Histopaque-1077 (Sigma, cat no. 10771). Isolated cells were seeded into the wells (280,000 cells/well) of a 96-well plate and incubated for 3 h with lipopolysaccharide (LPS, 1 μg/ml diluted 1000× from a 1 mg/ml stock solution). The compounds of the present disclosure were added (a single compound per well) and the cells were incubated for 30 min. Next, the cells were stimulated with ATP (5 mM final concentration diluted 20× from a 100 mM stock solution) for 1 h and the cell culture media from the wells were collected for further analysis.
The release of IL-1β into the media was determined by quantitative detection of IL-1β in the media using HTRF®, CisBio cat. No. 62HIL1BPEH. Briefly, cell culture supernatant were dispensed directly into the assay plate containing antibodies labelled with the HTRF® donor and acceptor. A microplate spectrophotometer (BMG) was used to detect signals at 655 nm and 620 nm. The detection range of IL-1β HTRF® was […].
Background: In TR-FRET formats the signal depends on donor and acceptor labels being close together.

Assay [2] relates to IL-1β release upon NLRP3 activation in human whole blood. Nature of the assay: Whole blood (WB) assay (IL-1β release, LPS priming + ATP stimulation, HTRF). The assay is classed as cell-based. The following applies: heparin, diluted 9:5 with media, LPS 1 μg/ml 3 h, compound 30 min, ATP 5 mM 1 h, IL-1β by HTRF. On the procedure:
The compounds of the present disclosure were tested for their inhibitory activity against IL-1β release upon NLRP3 activation in human whole blood.
Whole blood was drawn from single healthy donors and treated with sodium heparin anticoagulant. Blood was diluted with cell culture media at a 9:5 ratio, seeded in a 96-well plate and incubated for 3 h with lipopolysaccharide (LPS, 1 μg/ml final concentration diluted 1000× from a 1 mg/ml stock solution). The compounds of the present disclosure were added (a single compound concentration per well) and the blood was incubated for 30 min. Next, the blood was stimulated with ATP (5 mM final concentration diluted 20× from a 100 mM stock solution) for 1 h and the cell culture media from the wells were collected for further analysis.
The release of IL-1β into the media was determined by quantitative detection of IL-1β in the media using HTRF®, CisBio cat. No. 62HIL1BPEH. Briefly, cell culture supernatant were diluted as appropriate to bring IL-1β levels within the HTRF® detection range ([…]) and subsequently dispensed into the assay plate containing antibodies labelled with the HTRF® donor and acceptor. A microplate spectrophotometer (BMG) was used to detect signals at 655 nm and 620 nm.

By IC50 is commonly meant the concentration at which inhibition is half-maximal. Turning to `CCc1cc(CC)c(NC(=O)NS(=O)(=O)N(c2cnn(C)c2)C2CCCN(C)C2)s1` (stereo not drawn) [Compound 29, 3-(3,5-Diethylthiophen-2-yl)-1-[(1-methyl-1H-pyrazol-4-yl)(1-methylpiperidin-3-yl)sulfamoyl]urea], the half-maximal inhibitory concentration (IC50) in assay [1] lay within 100 to 500 nM; in assay [2], 1000 to 3000 nM.
The matching figures for `Cc1sc2c(c1NC(=O)NS(=O)(=O)N(c1cnn(C)c1)C1CCCN(C)C1)CCC2` (stereo not drawn) [Compound 32, 1-[(1-Methyl-1H-pyrazol-4-yl)(1-methylpiperidin-3-yl)sulfamoyl]-3-{2-methyl-4H,5H,6H-cyclopenta[b]thiophen-3-yl}urea]: 100 to 500 nM and less than 1000 nM.
The matching figures for `CC(C)c1sc(C2CC2)cc1NC(=O)NS(=O)(=O)N(c1cnn(C)c1)C1CCCN(C)C1` (stereo not drawn) [Compound 37, 3-[5-Cyclopropyl-2-(propan-2-yl)thiophen-3-yl]-1-[(1-methyl-1H-pyrazol-4-yl)(1-methylpiperidin-3-yl)sulfamoyl]urea]: less than 100 nM and 1000 to 3000 nM.
For `CC(C)c1cc(NC(=O)NS(=O)(=O)N(c2cnn(C)c2)C2CCCN(C)C2)c(C2CC2)s1` (stereo not drawn) [Compound 38, 3-[2-Cyclopropyl-5-(propan-2-yl)thiophen-3-yl]-1-[(1-methyl-1H-pyrazol-4-yl)(1-methylpiperidin-3-yl)sulfamoyl]urea], in that order: less than 100 nM and 1000 to 3000 nM.
Consider `CC(C)c1cc(NC(=O)NS(=O)(=O)N(c2cnn(C)c2)C2CCN(C)CC2)c(C(C)C)s1` [Compound 43, 3-[2,5-Bis(propan-2-yl)thiophen-3-yl]-1-[(1-methyl-1H-pyrazol-4-yl)(1-methyl-piperidin-4-yl)sulfamoyl]urea], for which the IC50 in assay [1] was less than 100 nM; in assay [2], less than 1000 nM.
For `CC(C)c1cc(NC(=O)NS(=O)(=O)N(c2cnn(C)c2)C2CCCN(C)C2)c(Cl)s1` (stereo not drawn) [Compound 50, 3-[2-Chloro-5-(propan-2-yl)thiophen-3-yl]-1-[(1-methyl-1H-pyrazol-4-yl)(1-methylpiperidin-3-yl)sulfamoyl]urea], in that order: 500 to 1000 nM and 1000 to 3000 nM.
For `CC(C)c1cc(C(C)C)c(NC(=O)NS(=O)(=O)N(c2cnn(C)c2)C2CCCN(C)C2)s1` (stereo not drawn) [Compound 52, 3-[3,5-Bis(propan-2-yl)thiophen-2-yl]-1-[(1-methyl-1H-pyrazol-4-yl)(1-methyl-piperidin-3-yl)sulfamoyl]urea], in that order: less than 100 nM and 1000 to 3000 nM.
On to `CC(C)c1cc(NC(=O)NS(=O)(=O)N(C[C@@H]2C[C@@H](F)CN2C)c2cnn(C)c2)c(C(C)C)s1` [Compound 53], for which the IC50 in assay [1] was less than 100 nM; in assay [2], 1000 to 3000 nM.
The matching figures for `CC(C)c1cc(NC(=O)NS(=O)(=O)N(c2cnn(C)c2)[C@@H]2CCCN(C)C2)c(C(C)C)s1` [Compound 54, 3-[2,5-Bis(propan-2-yl)thiophen-3-yl]-1-[(1-methyl-1H-pyrazol-4-yl)[(3R)-1-methylpiperidin-3-yl]sulfamoyl]urea]: less than 100 nM and less than 1000 nM.
The matching figures for `CC(C)c1cc(NC(=O)NS(=O)(=O)N(c2cnn(C(C)C)c2)[C@@H]2CCCN(C)C2)c(C(C)C)s1` [Compound 55, 3-[2,5-Bis(propan-2-yl)thiophen-3-yl]-1-{[(3R)-1-methylpiperidin-3-yl][1-(propan-2-yl)-1H-pyrazol-4-yl]sulfamoyl}urea]: less than 100 nM and less than 1000 nM.
The matching figures for `CC(C)c1cc(NC(=O)NS(=O)(=O)N(c2cnn(C)c2)[C@H]2CCCN(C)C2)c(C(C)C)s1` [Compound 56, 3-[2,5-Bis(propan-2-yl)thiophen-3-yl]-1-[(1-methyl-1H-pyrazol-4-yl)[(3S)-1-methylpiperidin-3-yl]sulfamoyl]urea]: less than 100 nM and less than 1000 nM.
As to `Cc1sc(C(C)C)cc1NC(=O)NS(=O)(=O)N(c1cnn(C)c1)[C@@H]1CCCN(C)C1` [Compound 57, 1-[(1-Methyl-1H-pyrazol-4-yl)[(3R)-1-methylpiperidin-3-yl]sulfamoyl]-3-[2-methyl-5-(propan-2-yl)thiophen-3-yl]urea], the IC50 in assay [1] was in the range of 100 to 500 nM; in assay [2] it was 1000 to 3000 nM.
For `CCc1sc(C(C)C)cc1NC(=O)NS(=O)(=O)N(c1cnn(C)c1)[C@@H]1CCCN(C)C1` [Compound 58, 3-[2-Ethyl-5-(propan-2-yl)thiophen-3-yl]-1-[(1-methyl-1H-pyrazol-4-yl)[(3R)-1-methylpiperidin-3-yl]sulfamoyl]urea], in that order: less than 100 nM and less than 1000 nM.
As for `CC(C)c1cc(NC(=O)NS(=O)(=O)N(c2cnn(C3CC3)c2)[C@@H]2CCCN(C)C2)c(C(C)C)s1` [Compound 59, 3-[2,5-Bis(propan-2-yl)thiophen-3-yl]-1-[(1-cyclopropyl-1H-pyrazol-4-yl)-[(3R)-1-methylpiperidin-3-yl]sulfamoyl]urea], the values for the IC50 in assay [1] and in assay [2] were less than 100 nM and 1000 to 3000 nM, respectively.
For `CC(C)c1sc(Cl)cc1NC(=O)NS(=O)(=O)N(c1cnn(C)c1)[C@@H]1CCCN(C)C1` [Compound 60, 3-[5-Chloro-2-(propan-2-yl)thiophen-3-yl]-1-[(1-methyl-1H-pyrazol-4-yl)-[(3R)-1-methylpiperidin-3-yl]sulfamoyl]urea], in that order: less than 100 nM and less than 1000 nM.
Consider `CCc1cc(NC(=O)NS(=O)(=O)N(c2cnn(C)c2)[C@@H]2CCCN(C)C2)c(C(C)C)s1` [Compound 61, 3-[5-Ethyl-2-(propan-2-yl)thiophen-3-yl]-1-[(1-methyl-1H-pyrazol-4-yl)[(3R)-1-methylpiperidin-3-yl]sulfamoyl]urea], for which the IC50 was less than 100 nM in assay [1] and 3000 to 10000 nM in assay [2].
For `CCc1cc(NC(=O)NS(=O)(=O)N(C[C@@H]2C[C@@H](F)CN2C)c2cnn(C)c2)c(CC)o1` [Compound 62, 1-(2,5-Diethylfuran-3-yl)-3-({[(2S,4R)-4-fluoro-1-methylpyrrolidin-2-yl]methyl}(1-methyl-1H-pyrazol-4-yl)sulfamoyl)urea], in that order: 500 to 1000 nM and 1000 to 3000 nM.
For `CCc1cc(NC(=O)NS(=O)(=O)N(CCN(C)C)c2cnn(C(C)C)c2)c(CC)o1` [Compound 64, 3-(2,5-Diethylfuran-3-yl)-1-{[2-(dimethylamino)ethyl][1-(propan-2-yl)-1H-pyrazol-4-yl]sulfamoyl}urea], in that order: 1000 to 5000 nM and 10000 to 20000 nM.
The matching figures for `CCc1cc(NC(=O)NS(=O)(=O)N(c2cnn(C)c2)C2CCOCC2)c(CC)o1` [Compound 65, 3-(2,5-Diethylfuran-3-yl)-1-[(1-methyl-1H-pyrazol-4-yl)(oxan-4-yl)sulfamoyl]-urea]: 1000 to 5000 nM and greater than 20000 nM.
For `Cc1cc(NC(=O)NS(=O)(=O)N(c2cnn(C)c2)[C@@H]2CCCN(C)C2)c(C(C)C)s1` [Compound 66, 1-[(1-Methyl-1H-pyrazol-4-yl)[(3R)-1-methylpiperidin-3-yl]sulfamoyl]-3-[5-methyl-2-(propan-2-yl)thiophen-3-yl]urea], the IC50 in assay [1] was less than 100 nM; in assay [2], less than 1000 nM.
The matching figures for `Cc1c(C(C)C)sc(C(C)C)c1NC(=O)NS(=O)(=O)N(c1cnn(C)c1)[C@@H]1CCCN(C)C1` [Compound 67, 1-[(1-Methyl-1H-pyrazol-4-yl)[(3R)-1-methylpiperidin-3-yl]sulfamoyl]-3-[4-methyl-2,5-bis(propan-2-yl)thiophen-3-yl]urea]: 100 to 500 nM and less than 1000 nM.

Source of the values: patent publication US12624023B2, “Sulfonylurea derivatives and uses thereof” (NodThera Limited, priority 2019, dated 2026).
